# Measured values reported in ChEMBL document CHEMBL1201862, “PubChem BioAssay data set” (2004).
# Calls of active or inactive are those of the source.
# Tests used:
# [1] = inhibition of ADAM10 peptide cleavage – biochemical, FRET peptide substrate, recombinant human ADAM10, selectivity assay for ADAM17 exosite inhibitor project, dose response (AID 743259);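 note: ADAM10 enzyme cleaving a FRET peptide substrate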
# [2] = target: Disintegrin and metalloproteinase domain-containing protein 17 (Homo sapiens, UniProt P78536); assay: exosite inhibitors of ADAM17, dose response, biochemical (AID 743260)
# [3] = target: Voltage-dependent T-type calcium channel subunit alpha-1H (Homo sapiens, UniProt O95180); assay type: functional;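 note: channel activity triggered by adding a high calcium stimulation buffer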
# Cytochrome P450 3A4 = Cytochrome P450 3A4 (Homo sapiens, UniProt P08684);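 note: CYP3A4 tested as one member of a cytochrome P450 panel screen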
# Kallikrein-7 = Kallikrein-7 (Homo sapiens, UniProt P49862); assay: Fluorescence Intensity-based biochemical primary high throughput dose response assay to identify activators of kallikrein-7 (K7) zymogen.
# Protein skinhead-1 = target: T1, Protein skinhead-1 (Caenorhabditis elegans, UniProt P34707); assay type: functional
# T1 sequence (P34707 whole entry): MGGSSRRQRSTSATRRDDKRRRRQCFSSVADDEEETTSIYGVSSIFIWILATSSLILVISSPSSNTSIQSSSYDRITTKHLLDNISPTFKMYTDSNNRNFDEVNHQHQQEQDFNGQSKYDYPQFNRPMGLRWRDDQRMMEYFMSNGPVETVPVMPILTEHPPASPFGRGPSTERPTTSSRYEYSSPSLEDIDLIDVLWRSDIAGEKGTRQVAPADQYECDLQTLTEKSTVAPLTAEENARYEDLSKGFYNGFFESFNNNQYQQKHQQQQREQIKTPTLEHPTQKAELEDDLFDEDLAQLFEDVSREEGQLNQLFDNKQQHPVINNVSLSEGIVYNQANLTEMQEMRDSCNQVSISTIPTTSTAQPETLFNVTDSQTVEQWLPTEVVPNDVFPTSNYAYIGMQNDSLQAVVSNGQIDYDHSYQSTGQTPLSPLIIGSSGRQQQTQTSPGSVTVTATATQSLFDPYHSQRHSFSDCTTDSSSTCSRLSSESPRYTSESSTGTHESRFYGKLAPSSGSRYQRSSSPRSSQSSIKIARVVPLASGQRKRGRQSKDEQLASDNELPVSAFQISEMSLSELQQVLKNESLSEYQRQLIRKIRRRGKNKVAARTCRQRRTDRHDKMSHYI
# [4] = target: SWI/SNF-related matrix-associated actin-dependent regulator of chromatin subfamily A member 2 (Homo sapiens, UniProt P51531); assay: Luminescence-based cell-based high throughput dose response assay to identify activators of the function of SWI/SNF related, matrix associated, actin dependent regulator of chromatin, subfamily a, member 2 (SMARCA2, BRM).; assay type: functional
# [5] = Counterscreen for activators of the function of SWI/SNF related, matrix associated, actin dependent regulator of chromatin, subfamily a, member 2 (SMARCA2, BRM): Luminescence-based cell-based high throughput dose response assay to identify non-selective compounds using the VP16 reporter assay.; assay type: functional
# [6] = target: 5-hydroxytryptamine receptor 2A (Mus musculus, UniProt P35363); assay type: functional, cell-based;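 note: CHO-K1 cells with tagged receptor and beta-arrestin; agonist potency measured as compound-induced activation of the receptor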
# Mu-type opioid receptor = Mu-type opioid receptor (Homo sapiens, UniProt P35372); assay type: functional, cell-based;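 note: U2OS cells with beta-arrestin recruitment to OPRM1 by beta-gal complementation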
# [7] = target: NAD-dependent protein deacylase sirtuin-5, mitochondrial (Homo sapiens, UniProt Q9NXA8); assay: sirtuin-5 deacylation blockers, concentration series – biochemical, fluorescence imaging, cherry-pick, set 5, dose response (AID 720591);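 note: desuccinylation of succinyl peptide AMC substrate read as fluorescence after trypsin release; potency of inhibitors that lower fluorescence and may act on trypsin instead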
# [8] = target: T2, RNA-binding protein pos-1 (Caenorhabditis elegans, UniProt G5EF15); assay: disruptors of C. elegans POS-1 RNA interaction – biochemical, fluorescence polarization, dose response (AID 1964);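 note: purified POS-1 fused to maltose binding protein made in E. coli; potency of compounds blocking POS-1 binding to fluorescent RNA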
# T2 sequence (G5EF15 whole entry): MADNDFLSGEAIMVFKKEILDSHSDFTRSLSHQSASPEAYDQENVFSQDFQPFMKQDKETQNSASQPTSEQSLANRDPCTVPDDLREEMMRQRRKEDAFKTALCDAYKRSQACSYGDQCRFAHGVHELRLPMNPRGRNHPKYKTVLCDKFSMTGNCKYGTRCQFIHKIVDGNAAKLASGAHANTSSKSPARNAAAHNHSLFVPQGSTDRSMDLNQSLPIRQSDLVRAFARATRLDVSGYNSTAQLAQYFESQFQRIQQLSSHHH
# [9] = target: T3, Zinc finger protein mex-5 (Caenorhabditis elegans, UniProt Q9XUB2); assay: potency of MEX-5 RNA-binding blockers – biochemical, C. elegans, fluorescence polarization, dose response (AID 1960)
# T3 sequence (Q9XUB2 whole entry): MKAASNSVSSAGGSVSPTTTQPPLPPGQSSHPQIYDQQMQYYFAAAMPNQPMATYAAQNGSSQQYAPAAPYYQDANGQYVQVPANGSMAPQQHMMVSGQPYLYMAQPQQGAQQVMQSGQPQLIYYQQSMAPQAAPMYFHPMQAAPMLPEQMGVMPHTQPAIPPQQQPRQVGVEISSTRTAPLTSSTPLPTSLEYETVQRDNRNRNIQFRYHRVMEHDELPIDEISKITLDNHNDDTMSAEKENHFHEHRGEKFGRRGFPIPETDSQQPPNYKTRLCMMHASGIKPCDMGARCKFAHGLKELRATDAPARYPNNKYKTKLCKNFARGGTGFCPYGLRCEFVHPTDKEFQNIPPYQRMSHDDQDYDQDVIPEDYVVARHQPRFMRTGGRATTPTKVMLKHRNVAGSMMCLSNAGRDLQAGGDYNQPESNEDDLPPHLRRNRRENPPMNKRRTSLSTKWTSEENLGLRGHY
# [10] = target: T4, Polyadenylate-binding protein 1 (Homo sapiens, UniProt P11940); assay: MLLE domain peptide-binding blockers, IC50 – biochemical, fluorescence polarization, FITC-PAM2 peptide, dose response (AID 602259); assay type: functional; conditions: read-out: IC50_Mean
# [11] = target: T4, Polyadenylate-binding protein 1; assay: MLLE binding blockers, Cy5 peptide tracer – biochemical, fluorescence polarization, Cy5-PAM2 peptide, secondary, miRNA deadenylation inhibitor project, dose response (AID 602260); assay type: functional; conditions: read-out: IC50_Mean
# Beta-lactamase [12] = target: Beta-lactamase (Pseudomonas aeruginosa, UniProt Q79MP6);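 note: biochemical dose-response test of metallo-beta-lactamase enzyme inhibition, read out by epi-absorbance; purified recombinant IMP-1 metallo-beta-lactamase with nitrocefin as substrate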
# H9c2 = assay: cells; assay type: functional, cell-based; conditions: Rattus norvegicus, H9c2, Myocardium;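 note: confirmatory concentration-response retest of ultra-high-throughput screening hits for modulation of myocardial damage; cell death induced by hydrogen peroxide oxidative stress; compound pretreatment for 60 min then peroxide exposure for 2 h; potency is for protecting the cells against peroxide damage rather than for killing them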
# Beta-lactamase [13] = target: Beta-lactamase (Salmonella choleraesuis (strain SC-B67), UniProt Q5J463)
# [14] = viability loss in HeLa cells – cytotoxicity control for MgcRacGAP inhibitor project, dose response (AID 624300); assay type: functional
# [15] = target: T5, Mitochondrial peptide methionine sulfoxide reductase (Bos taurus, UniProt P54149); assay: Absorbance-based biochemical high throughput dose response assay for activators of Methionine sulfoxide reductase A (MsrA).; assay type: functional
# T5 sequence (P54149 whole entry): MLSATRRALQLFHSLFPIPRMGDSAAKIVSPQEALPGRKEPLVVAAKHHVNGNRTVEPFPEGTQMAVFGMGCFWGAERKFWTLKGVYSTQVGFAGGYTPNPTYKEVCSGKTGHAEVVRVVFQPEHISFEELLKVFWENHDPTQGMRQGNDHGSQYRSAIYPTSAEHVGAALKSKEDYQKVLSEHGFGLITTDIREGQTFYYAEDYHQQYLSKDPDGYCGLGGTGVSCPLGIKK
# [16] = target: T6, Rac GTPase-activating protein 1 (Homo sapiens, UniProt Q9H0H5); assay: blockers of MgcRacGAP-driven Rac1 GTP hydrolysis – biochemical, ADP Hunter fluorescence, primary and confirmatory, confirmation (AID 624330); assay type: functional
# T6 sequence (Q9H0H5 whole entry): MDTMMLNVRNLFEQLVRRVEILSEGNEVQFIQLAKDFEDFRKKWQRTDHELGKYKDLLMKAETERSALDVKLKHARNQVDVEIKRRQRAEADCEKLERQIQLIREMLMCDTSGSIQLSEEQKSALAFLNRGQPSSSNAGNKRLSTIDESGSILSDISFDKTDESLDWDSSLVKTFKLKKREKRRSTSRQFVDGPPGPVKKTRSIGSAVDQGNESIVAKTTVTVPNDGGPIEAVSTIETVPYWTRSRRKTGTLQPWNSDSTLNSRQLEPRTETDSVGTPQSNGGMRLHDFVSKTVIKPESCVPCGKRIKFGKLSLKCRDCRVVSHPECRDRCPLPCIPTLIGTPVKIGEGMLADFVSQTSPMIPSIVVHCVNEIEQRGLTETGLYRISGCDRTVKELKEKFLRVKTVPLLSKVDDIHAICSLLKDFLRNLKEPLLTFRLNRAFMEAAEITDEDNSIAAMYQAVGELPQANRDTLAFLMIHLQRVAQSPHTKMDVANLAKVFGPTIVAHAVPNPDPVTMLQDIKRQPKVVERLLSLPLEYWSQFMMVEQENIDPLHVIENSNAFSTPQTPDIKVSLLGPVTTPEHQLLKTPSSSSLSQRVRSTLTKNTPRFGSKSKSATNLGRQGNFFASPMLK
# [17] = target: T7, Tyrosyl-DNA phosphodiesterase 2 (Homo sapiens, UniProt O95551); assay: potency against TDP2 phosphodiesterase activity – biochemical, epi absorbance, IC50, dose response (AID 743297)
# T7 sequence (O95551 whole entry): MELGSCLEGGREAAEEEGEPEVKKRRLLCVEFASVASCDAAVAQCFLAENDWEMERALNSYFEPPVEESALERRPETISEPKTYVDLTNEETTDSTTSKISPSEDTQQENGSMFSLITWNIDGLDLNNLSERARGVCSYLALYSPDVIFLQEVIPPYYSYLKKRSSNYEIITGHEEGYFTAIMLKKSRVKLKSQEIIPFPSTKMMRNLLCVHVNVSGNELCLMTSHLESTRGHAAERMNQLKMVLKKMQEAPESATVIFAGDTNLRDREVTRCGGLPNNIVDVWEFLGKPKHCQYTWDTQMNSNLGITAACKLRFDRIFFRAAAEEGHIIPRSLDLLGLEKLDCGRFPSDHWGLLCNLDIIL
# [18] = activation of miR-122 Renilla sensor silencing – cell-based, Huh7 psiCHECK-miR122, Renilla luciferase, cherry-picked, dose response (AID 651956); assay type: functional;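 note: huh7 hepatoma cells stably carrying a psiCHECK-2 miR-122 sensor plasmid; renilla luciferase signal reporting endogenous miR-122 activity after 48 h compound exposure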
# [19] = general mammalian cell viability loss – activator set, cherry-pick, cytotoxicity control for miR-122 modulator project, dose response (AID 720690); assay type: functional, cell-based;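 note: HEK293T human cells scored for general mammalian cytotoxicity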
# Paired box protein Pax-8 = Paired box protein Pax-8 (Homo sapiens, UniProt Q06710); assay: PAX8 transcriptional activity inhibition in RMG-I – RMG-I cells, luciferase, cherry-pick, dose response (AID 687027); assay type: functional, cell-based;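 note: luciferase reporter driven by Pax8 target thyroperoxidase promoter measured by SteadyGlo luminescence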
# [20] = A2780 cell killing – plate reader, dry powder samples, cytotoxicity control, dose response (AID 743046); assay type: functional, cell-based
# [21] = OVCAR-3 cell viability loss – plate reader, dry powder samples, PAX8 inhibitor project, dose response (AID 743044); assay type: functional, cell-based
# [22] = OVCAR8 cell viability loss – plate reader, dry powder samples, PAX8 project, dose response (AID 743197); assay type: functional, cell-based; conditions: OVCAR-8
# Cryptococcus neoformans = assay: PubChem AID 686997; assay type: functional, organism-based
# [23] = viability loss in CEM21 cells – cell-based, plate reader, dry powder, cytotoxicity control, dose response (AID 687026); assay type: functional
# Chain of Cytochrome P450 3A4 (P08684 whole entry): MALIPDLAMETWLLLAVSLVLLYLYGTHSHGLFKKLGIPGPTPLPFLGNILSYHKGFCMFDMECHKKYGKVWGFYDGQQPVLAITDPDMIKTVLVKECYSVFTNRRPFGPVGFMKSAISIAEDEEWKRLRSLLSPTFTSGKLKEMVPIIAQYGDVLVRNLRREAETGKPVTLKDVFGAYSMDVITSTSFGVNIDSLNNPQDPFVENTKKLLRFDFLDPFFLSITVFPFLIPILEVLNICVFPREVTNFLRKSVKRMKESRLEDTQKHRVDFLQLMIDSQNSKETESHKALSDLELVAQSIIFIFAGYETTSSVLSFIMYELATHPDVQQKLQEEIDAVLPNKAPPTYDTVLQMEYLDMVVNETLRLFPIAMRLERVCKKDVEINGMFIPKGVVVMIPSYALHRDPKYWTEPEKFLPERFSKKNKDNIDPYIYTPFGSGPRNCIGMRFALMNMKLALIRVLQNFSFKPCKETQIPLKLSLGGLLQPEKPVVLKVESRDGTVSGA
# Chain of Disintegrin and metalloproteinase domain-containing protein 17 (P78536 whole entry, the tested form may be a part): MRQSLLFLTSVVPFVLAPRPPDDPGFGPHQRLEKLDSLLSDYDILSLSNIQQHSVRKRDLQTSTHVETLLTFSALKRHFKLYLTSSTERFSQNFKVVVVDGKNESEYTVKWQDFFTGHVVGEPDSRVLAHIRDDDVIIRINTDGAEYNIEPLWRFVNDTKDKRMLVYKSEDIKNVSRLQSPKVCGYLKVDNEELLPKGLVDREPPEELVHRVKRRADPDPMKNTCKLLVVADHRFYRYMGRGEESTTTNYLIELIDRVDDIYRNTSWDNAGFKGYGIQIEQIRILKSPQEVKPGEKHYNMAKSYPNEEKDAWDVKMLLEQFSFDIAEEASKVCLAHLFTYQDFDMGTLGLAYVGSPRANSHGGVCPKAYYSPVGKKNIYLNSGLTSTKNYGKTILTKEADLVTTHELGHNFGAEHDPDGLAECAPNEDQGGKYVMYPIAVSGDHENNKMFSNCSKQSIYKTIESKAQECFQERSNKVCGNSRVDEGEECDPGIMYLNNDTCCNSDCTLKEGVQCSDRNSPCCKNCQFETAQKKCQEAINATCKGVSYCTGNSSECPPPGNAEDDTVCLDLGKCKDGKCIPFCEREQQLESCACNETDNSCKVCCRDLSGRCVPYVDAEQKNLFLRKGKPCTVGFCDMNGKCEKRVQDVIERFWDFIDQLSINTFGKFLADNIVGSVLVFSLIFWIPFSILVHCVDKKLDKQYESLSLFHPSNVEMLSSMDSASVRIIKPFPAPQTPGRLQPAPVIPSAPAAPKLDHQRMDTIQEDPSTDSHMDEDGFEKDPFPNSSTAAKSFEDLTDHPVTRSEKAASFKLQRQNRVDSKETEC
# Chain of SWI/SNF-related matrix-associated actin-dependent regulator of chromatin subfamily A member 2 (P51531 whole entry): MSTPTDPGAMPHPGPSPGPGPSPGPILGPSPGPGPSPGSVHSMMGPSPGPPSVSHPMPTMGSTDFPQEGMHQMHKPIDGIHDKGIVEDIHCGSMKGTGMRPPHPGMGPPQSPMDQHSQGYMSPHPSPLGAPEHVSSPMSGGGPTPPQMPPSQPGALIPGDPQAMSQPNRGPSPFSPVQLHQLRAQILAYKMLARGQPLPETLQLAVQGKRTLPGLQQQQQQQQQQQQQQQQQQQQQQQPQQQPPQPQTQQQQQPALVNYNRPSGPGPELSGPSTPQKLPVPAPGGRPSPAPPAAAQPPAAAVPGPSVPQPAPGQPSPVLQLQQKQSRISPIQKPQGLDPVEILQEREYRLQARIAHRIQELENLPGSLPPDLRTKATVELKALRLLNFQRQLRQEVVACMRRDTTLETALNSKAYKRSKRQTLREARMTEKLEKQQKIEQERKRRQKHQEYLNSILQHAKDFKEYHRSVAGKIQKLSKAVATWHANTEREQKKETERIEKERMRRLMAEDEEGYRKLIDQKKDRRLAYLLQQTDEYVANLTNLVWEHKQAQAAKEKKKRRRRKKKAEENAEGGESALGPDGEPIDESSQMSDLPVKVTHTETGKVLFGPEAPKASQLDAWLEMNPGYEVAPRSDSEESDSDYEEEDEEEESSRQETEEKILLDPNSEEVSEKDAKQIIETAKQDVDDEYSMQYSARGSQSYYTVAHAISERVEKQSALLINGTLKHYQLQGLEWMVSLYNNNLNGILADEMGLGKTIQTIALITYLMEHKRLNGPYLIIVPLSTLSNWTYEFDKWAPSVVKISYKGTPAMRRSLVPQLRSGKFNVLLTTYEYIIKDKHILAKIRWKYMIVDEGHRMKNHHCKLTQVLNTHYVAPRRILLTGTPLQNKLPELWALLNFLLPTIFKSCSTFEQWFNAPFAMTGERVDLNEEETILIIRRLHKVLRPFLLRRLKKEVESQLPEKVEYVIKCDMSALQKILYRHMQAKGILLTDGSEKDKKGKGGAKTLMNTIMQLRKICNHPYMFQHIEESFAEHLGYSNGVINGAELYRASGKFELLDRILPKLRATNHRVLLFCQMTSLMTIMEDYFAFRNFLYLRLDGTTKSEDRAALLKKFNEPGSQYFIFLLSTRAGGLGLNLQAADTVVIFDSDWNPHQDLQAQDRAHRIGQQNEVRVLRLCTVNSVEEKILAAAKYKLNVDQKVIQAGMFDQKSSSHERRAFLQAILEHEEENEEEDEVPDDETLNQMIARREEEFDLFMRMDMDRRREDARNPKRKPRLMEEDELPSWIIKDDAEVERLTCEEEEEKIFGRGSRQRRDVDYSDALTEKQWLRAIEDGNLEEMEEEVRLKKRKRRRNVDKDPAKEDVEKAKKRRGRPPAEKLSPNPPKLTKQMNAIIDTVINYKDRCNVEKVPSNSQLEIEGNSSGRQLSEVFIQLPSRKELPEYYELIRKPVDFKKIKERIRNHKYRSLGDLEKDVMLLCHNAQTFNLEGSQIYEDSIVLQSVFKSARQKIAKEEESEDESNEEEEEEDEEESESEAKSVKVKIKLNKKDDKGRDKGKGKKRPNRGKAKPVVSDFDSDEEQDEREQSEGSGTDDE
# Chain of Kallikrein-7 (P49862 whole entry): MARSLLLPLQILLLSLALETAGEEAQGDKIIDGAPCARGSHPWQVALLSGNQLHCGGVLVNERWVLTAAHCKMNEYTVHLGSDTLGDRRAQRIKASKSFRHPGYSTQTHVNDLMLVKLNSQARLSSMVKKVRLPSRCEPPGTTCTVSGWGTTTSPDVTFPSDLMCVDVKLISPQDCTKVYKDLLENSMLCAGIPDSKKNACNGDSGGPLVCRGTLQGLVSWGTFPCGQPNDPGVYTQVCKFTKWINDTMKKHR
# T4 sequence (P11940 whole entry, the tested form may be a part): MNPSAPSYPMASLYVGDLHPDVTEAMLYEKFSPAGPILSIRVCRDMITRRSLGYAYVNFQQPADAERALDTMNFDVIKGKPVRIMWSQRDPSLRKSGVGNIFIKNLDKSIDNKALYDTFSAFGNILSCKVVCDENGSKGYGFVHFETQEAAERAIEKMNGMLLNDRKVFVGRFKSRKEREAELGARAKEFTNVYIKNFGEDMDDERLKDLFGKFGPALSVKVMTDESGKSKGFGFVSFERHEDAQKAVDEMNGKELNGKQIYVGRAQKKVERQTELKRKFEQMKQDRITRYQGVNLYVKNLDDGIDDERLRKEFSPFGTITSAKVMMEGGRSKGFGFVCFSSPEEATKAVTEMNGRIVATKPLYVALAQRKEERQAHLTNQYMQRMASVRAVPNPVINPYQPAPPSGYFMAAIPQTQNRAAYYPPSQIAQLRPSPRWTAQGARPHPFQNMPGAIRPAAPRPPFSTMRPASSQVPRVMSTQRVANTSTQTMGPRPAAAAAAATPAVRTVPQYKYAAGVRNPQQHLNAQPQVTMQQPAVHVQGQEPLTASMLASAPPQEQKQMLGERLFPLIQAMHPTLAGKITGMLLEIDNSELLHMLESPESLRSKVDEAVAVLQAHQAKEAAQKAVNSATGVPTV
# Chain of NAD-dependent protein deacylase sirtuin-5, mitochondrial (Q9NXA8 whole entry, the tested form may be a part): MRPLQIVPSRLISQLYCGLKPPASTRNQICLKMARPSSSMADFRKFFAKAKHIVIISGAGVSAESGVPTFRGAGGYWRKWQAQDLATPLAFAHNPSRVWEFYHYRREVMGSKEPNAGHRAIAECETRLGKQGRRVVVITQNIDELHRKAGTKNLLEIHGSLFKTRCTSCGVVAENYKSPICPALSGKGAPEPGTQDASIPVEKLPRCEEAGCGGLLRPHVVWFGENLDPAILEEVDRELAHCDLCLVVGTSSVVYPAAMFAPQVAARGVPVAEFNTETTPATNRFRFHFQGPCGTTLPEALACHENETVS
# Chain of Beta-lactamase (Salmonella choleraesuis (strain SC-B67), UniProt Q5J463) (Q5J463 whole entry): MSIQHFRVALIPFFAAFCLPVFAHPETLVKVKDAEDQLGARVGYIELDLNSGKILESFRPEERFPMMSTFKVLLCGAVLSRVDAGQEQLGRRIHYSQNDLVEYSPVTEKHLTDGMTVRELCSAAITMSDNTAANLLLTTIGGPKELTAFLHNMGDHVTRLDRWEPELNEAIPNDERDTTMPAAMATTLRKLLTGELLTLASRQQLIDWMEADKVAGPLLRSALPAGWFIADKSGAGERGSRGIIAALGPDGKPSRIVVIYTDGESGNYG
# Chain of 5-hydroxytryptamine receptor 2A (P35363 whole entry): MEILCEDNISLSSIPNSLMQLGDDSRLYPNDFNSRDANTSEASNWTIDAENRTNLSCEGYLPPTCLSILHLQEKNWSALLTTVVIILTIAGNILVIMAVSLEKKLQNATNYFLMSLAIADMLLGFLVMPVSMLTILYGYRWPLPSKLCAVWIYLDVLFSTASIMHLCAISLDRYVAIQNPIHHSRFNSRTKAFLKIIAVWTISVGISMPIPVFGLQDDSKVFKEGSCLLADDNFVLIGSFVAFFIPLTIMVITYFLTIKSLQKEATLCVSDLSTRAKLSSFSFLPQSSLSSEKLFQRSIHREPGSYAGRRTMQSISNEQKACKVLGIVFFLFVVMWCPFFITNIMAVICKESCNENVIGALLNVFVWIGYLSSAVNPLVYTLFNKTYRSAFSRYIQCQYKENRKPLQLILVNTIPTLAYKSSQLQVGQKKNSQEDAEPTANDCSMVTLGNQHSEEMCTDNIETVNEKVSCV
compound,measurement,setting,value
CC(C)(C)c1ccc(-c2nc(NCc3cccnc3)c3ccccc3n2)cc1,IC50,[1],> 7.72 µM (active)
same,IC50,[2],> 69.5 µM (inactive)
O=C(CC(c1ccccc1)c1ccccc1)Nc1ccc2c(c1)OCCO2,IC50,[1],> 69.5 µM (inactive)
same,IC50,[2],> 69.5 µM (inactive)
same,EC50,[3],33.6 µM (active)
same,AC50,Cytochrome P450 3A4,20 µM (inconclusive)
O=C(c1cc(-c2cccs2)nc2ccccc12)N1CCN(CCO)CC1,EC50,Kallikrein-7,> 69.5 µM (inactive)
O=c1c(-c2ccc(Br)cc2)coc2c(CN3CCOCC3)c(O)ccc12,IC50,Protein skinhead-1,> 100 µM (inactive)
same,EC50,Kallikrein-7,66.1 µM (inactive)
O=c1c2ccccc2sc2c(CO)ccc(NCCN3CCCCC3)c12,EC50,[4],> 91.1 µM (inactive)
same,EC50,[5],> 91.1 µM (inactive)
same,AC50,Cytochrome P450 3A4,6.31 µM (inconclusive)
CC(C)=CC(=O)N1CC[C@@H](N2CCN(c3ccccc3F)CC2)[C@H](O)C1,EC50,[6],43.5 µM (inactive)
same,EC50,Mu-type opioid receptor,92.4 µM (inactive)
COCC(C)n1c(C)cc(C(=O)COC(=O)CCc2nc(O)c3ccccc3n2)c1C (centres undefined),AC50,[7],> 30 µM (inactive)
CCOC(=O)c1c2c3c(cccc3n(C)c1=O)C(=O)c1ccccc1-2,EC50,[8],8.67 µM (inconclusive)
same,EC50,[9],9.59 µM (active)
same,IC50,[10],37.2 µM (inactive)
same,IC50,[11],> 66 µM (inactive)
same,IC50,Beta-lactamase [12],> 59.6 µM (inactive)
same,IC50,H9c2,> 79 µM (inactive)
same,IC50,Beta-lactamase [13],> 59.6 µM (inactive)
COc1cc(C=c2c3ccccc3n3c2cc(-c2ccccc2)[n+]3C)cc(OC)c1OC,CC50,[14],100 µM (active)
same,EC50,[15],> 104 µM (inactive)
same,IC50,[16],323 µM (active)
same,IC50,[17],> 128 µM (inactive)
COc1cc(C(=O)Nc2nnc(Cc3ccccc3)s2)cc(OC)c1OC,AC50,[7],> 30 µM (inactive)
C=C1C(=O)OC2C1CCC(C)C1(O)C=CC(=O)C21C (centres undefined),EC50,[4],> 91.2 µM (inactive)
same,EC50,[5],> 91.2 µM (inactive)
CC(C)CC#Cc1ccc2c(c1)O[C@H](CN(C)C(=O)c1ccccc1)[C@H](C)CN([C@H](C)CO)S2(=O)=O,AC50,[18],27.2 µM (active)
same,AC50,[19],27.5 µM (active)
COc1ccccc1C#Cc1ccc2c(c1)O[C@@H](CN(C)Cc1cccnc1)[C@@H](C)CN([C@H](C)CO)S2(=O)=O,AC50,[18],25.4 µM (active)
same,AC50,[19],9.3 µM (active)
C[C@@H]1CN([C@H](C)CO)C(=O)c2cc(NS(=O)(=O)c3ccc(F)cc3)ccc2O[C@@H](C)CCCCO[C@H]1CN(C)S(=O)(=O)c1ccc(Cl)cc1,AC50,Paired box protein Pax-8,6.83 µM (active)
same,AC50,[20],2.97 µM (active)
same,AC50,[21],32 µM (active)
same,AC50,[22],> 70 µM (inactive)
COC(=O)C1=C(C)N(Cc2ccccc2)C(=S)NC1c1ccc(Cl)cc1 (centres undefined),AC50,Cryptococcus neoformans,28.7 µM (active)
Cc1ccc(-c2nnc3ccc4c(C(F)(F)F)cc(C(F)(F)F)nc4n23)cc1,AC50,[23],> 70 µM (inactive)
